Reference: patent US12194140B2, “Compositions for topical treatment of microbial infections” (Hennepin Life Sciences, priority 2012, dated 2025)
Entries after “also recorded” stand apart in the source; their conditions may differ.

Assays:
E. coli (Watson strain) = test: GML and EDTA on the growth of E. coli; type: cell-based; conditions: 24 hours; EDTA 0.05 M to 0.00005 M; GML 100 μg/mL
Protocol: E. coli (Watson strain) was adjusted to I.2×10^7/mL in Todd Hewitt media. […] Cultures were incubated with shaking (200 RPM) for 24 hours, at which time samples were removed for plate counting. To further assess the combined effects of GML and EDTA, the experiment was carried out as above, and the relative effects on the growth of E. coli of EDTA alone or the combination of GML and EDTA were assessed in direct comparison to GML alone.

S. pyogenes (strain 594) = test: Antibacterial effects of various forms of GML; type: cell-based
Protocol: In order to test for potential differences between the optical isomers, the R form of GML, which is commercially available, was compared to a GML racemic mixture of the R and S forms. […] Antibacterial effects of these forms of GML was assessed on S. pyogenes (strain 594).

[1] = Solubility of Tenofovir in non-aqueous gels; type: physicochemical; conditions: 10 mg/mL
Protocol: Non-aqueous gels comprised of propylene glycol (73.55% w/w), polyethylene glycol 400 (25% w/w), and hydroxypropyl cellulose (1.25% w/w) at a range of pH from 4.0 to 4.5 were prepared. The anti-HIV drug Tenofovir was added to the gels at a concentration of 10 mg/mL to determine if the drug was soluble in the compositions.

O=C(O)CN(CCN(CC(=O)O)CC(=O)O)CC(=O)O [EDTA, ethylenediaminetetraacetic acid]
anti-bacterial activity on growth of E. coli (CFU/mL) (E. coli (Watson strain)): inhibited the growth of E. coli somewhat, in a dose-dependent manner; also recorded: inhibited the growth of E. coli to some extent at higher concentrations

CCCCCCCCCCCC(=O)OC(CO)CO [Glycerol monolaurate (GML) 2-position]
activity relative to the mixture of 2-position and ⅓-position GML forms (S. pyogenes (strain 594)): 2 fold

CCCCCCCCCCCC(=O)OC[C@H](O)CO [R form GML]
antibacterial activity, R form versus mixture of R and S forms (S. pyogenes (strain 594)): same antibacterial activity

C[C@H](Cn1cnc2c(N)ncnc21)OCP(=O)(O)O [Tenofovir]
solubility in non-aqueous gel ([1]; pH 4.0-4.3): not soluble | solubility in non-aqueous gel ([1]; pH 4.4 or 4.5): soluble

CCCCCCCCCCCC(=O)OCC(O)CO (stereo not drawn) [mixture of R and S form GML]
antibacterial activity, R form versus mixture of R and S forms (S. pyogenes (strain 594)): same antibacterial activity
